Holding throughout (format): cell-based, human
In assay [1] the test system is adipose mesenchymal stem cells. Briefly: Morphology of stem cells under phase contrast microscope. The following applies: 4 days of culture; result in words. The method, then:
(§1) The adipose mesenchymal stem cells of three persons, obtained by subculture to passage 3 in Example 1, were seeded into each of the following media and cultured for 4 days. During 4 days of culture, the morphology of the cells was observed. In addition, the size, viability and CDPL (cell population doubling level) of the cells were measured and expressed as mean values.
The morphology of the stem cells was observed under a phase contrast microscope and photographed (see FIG. 1).

Assay [2] deals with adipose mesenchymal stem cells. In words: Viability of stem cells (Luna automated cell counter). Also on record: viability of stem cells: unit not given here. Conditions: for effect on the viability of the cells: 4 days of culture, result in words; for viability of stem cells: mean n=3. The method, then: as §1
(§2) While the adipose mesenchymal stem cells isolated in Example 1 was cultured in each of the media, the adipose mesenchymal stem cells were collected at different days of culture, and the viability, cell size and CPDL of the cells were measured. Also, telomerase activity was measured for the cells subcultured to passage 3. The Alnus japonica extract in medium 11 was prepared in the following manner.
The viability of the stem cells was measured using Luna™ automated cell counter (n=3).

For assay [3], the system named is adipose mesenchymal stem cells. In words: Size of stem cells (Luna automated cell counter). Conditions: for effect on the size of the cells: 4 days of culture, result in words; for size of stem cells: mean n=3. As to the method: as §1, §2
The adipose mesenchymal stem cells isolated in Example 1 were seeded in each of the media, and then treated with trypsin at different days of culture. Next, the adipose mesenchymal stem cells were collected, and the size (μm) of the stem cells was measured using Luna™ automated cell counter (n=3).

For assay [4], the system named is adipose mesenchymal stem cells. In words: Telomerase activity of stem cells (Telo TAGGG Telomerase PCR ELISA kit). Also on record: telomerase activity (N = 3): unit not given here. Conditions: for telomerase activity (N = 3): cells cultured to passage 3. As to the method:
as §2
Adipose mesenchymal stem cells isolated from persons in their 40s, 50s and 60s according to the method of Example 1 were cultured to passage 3 in each of the media shown in Table 4 above, and then the telomerase activity of the stem cells was measured using Telo TAGGG Telomerase PCR ELISA kit (Roche).

Assay [5] has as its system adipose mesenchymal stem cells. Briefly: Cell population doubling level (CPDL) of stem cells. As to the method: as §1, §2
The cell population doubling level (CPDL) of the stem cells was calculated using the following equation: CPDL=[…], wherein Nfinal: the number of finally obtained cells; and Ninitial: the number of initially seeded cells.

The mark [6] stands for this setting: Day 1 post seeding, 20 nM in M9 medium.
Setting [7] is: Day 1 post seeding, 50 nM in M9 medium.
The mark [8] stands for this setting: Day 2 post seeding, 20 nM in M9 medium.
Setting [9] is: Day 2 post seeding, 50 nM in M9 medium.
Where [10] appears, read: Day 3 post seeding, 20 nM in M9 medium.
Setting [11] is: Day 3 post seeding, 50 nM in M9 medium.
[12] abbreviates: Day 4 post seeding, 20 nM in M9 medium.
Where [13] appears, read: Day 4 post seeding, 50 nM in M9 medium.

For the molecule `COC1=C(OC)C(=O)C(C/C=C(\C)CC/C=C(\C)CC/C=C(\C)CC/C=C(\C)CC/C=C(\C)CC/C=C(\C)CC/C=C(\C)CC/C=C(\C)CC/C=C(\C)CCC=C(C)C)=C(C)C1=O` [Coenzyme Q10, coenzyme Q-10], the “effect on the morphology of the cells” value in assay [1] is “no significant effect on the morphology”. Moreover, the “effect on the viability of the cells” value in assay [2] is “no significant effect on the viability”. Also, the “effect on the size of the cells” value in assay [3] is on record as “no significant effect on the size”. Besides, the “telomerase activity (N = 3)” value in assay [4] (5 μM in M9 medium) came to 2.817; in assay [4] (10 μM in M9 medium) it was 1.964.

Turning to `Cc1c(-c2cnccn2)ssc1=S` [Oltipraz, oltipraz], the “telomerase activity (N = 3)” value came to 1.968 in assay [4] (7 μM in M9 medium) and 2.137 in assay [4] (10 μM in M9 medium).

With `Oc1ccc(C=Cc2cc(O)cc(O)c2)cc1` [Resveratrol], the results for the “telomerase activity (N = 3)” value in assay [4] (1 μM in M9 medium) and in assay [4] (2 μM in M9 medium) were 2.042 and 1.654, respectively.

For `CC(C)(C)c1cc(O)ccc1O` [TBH-Q, T-BHQ], the “telomerase activity (N = 3)” value in assay [4] (5 μM in M9 medium) was determined as 2.524; in assay [4] (20 μM in M9 medium), 2.838.

As for apelin, the “effect on the morphology of the cells” value in assay [1] is reported as “no significant effect on the morphology”. In addition, the “effect on the viability of the cells” value in assay [2] is “no significant effect on the viability”. The “viability of stem cells” value in assay [2] (setting [6]) turned out to be 97.2; in assay [2] (setting [7]), 91.7; in assay [2] (setting [8]), 98.9; in assay [2] (setting [9]), 100; in assay [2] (setting [10]) it was 98.8; in assay [2] (setting [11]), 98.8. Also, the “viability of stem cells” value in assay [2] (setting [12]) was 99.4; in assay [2] (setting [13]) it was 99.2. Moreover, in assay [3], the “effect on the size of the cells” value is “no significant effect on the size”. The “size of stem cells” value in assay [3] (setting [6]) is recorded as 19.0 μm; in assay [3] (setting [7]) it was 18.6 μm; in assay [3] (setting [8]) it was 18.3 μm; in assay [3] (setting [9]), 15.6 μm; in assay [3] (setting [10]), 18.2 μm; in assay [3] (setting [11]), 18.0 μm. The “size of stem cells” value in assay [3] (setting [12]) came out at 18.5 μm; in assay [3] (setting [13]) it was 17.9 μm. In addition, the “cell population doubling level (CPDL)” value was found to be 0.00 in assay [5] (Day 0 post seeding, 20 nM in M9 medium); 0.00 in assay [5] (Day 0 post seeding, 50 nM in M9 medium); 0.89 in assay [5] (setting [6]); 0.56 in assay [5] (setting [7]); 2.84 in assay [5] (setting [8]); 1.65 in assay [5] (setting [9]). The “cell population doubling level (CPDL)” value in assay [5] (setting [10]) is reported as 6.54; in assay [5] (setting [11]), 5.11; in assay [5] (setting [12]) it was 9.28; in assay [5] (setting [13]) it was 8.20. Moreover, the ability to proliferate entry in assay [5] (cultured in medium containing the substance, result in words) was “proliferation ability efficiently increased”. The “telomerase activity (N = 3)” value amounted to 2.838 in assay [4] (5 nM in M9 medium) and 3.068 in assay [4] (20 nM in M9 medium). The “telomerase activity compared between media” value in assay [4] (20 nM, passage 3, result in words) was “highest telomerase activity”.
